Patent publication US10363250B2, “Folate receptor binding conjugates of antifolates” (Purdue Research Foundation, priority 2008, dated 2019)
Values joined by “and” are separate entries in the source; they are usually repeats but may differ in a detail not shown here. Equal entries are not always repeated. Where two headings read alike, the source gives them in different places. Values belong to the compound of their own block, whether it stands above or below them.

Tests used:
Folate Receptor = Folate Receptor (Homo sapiens, UniProt P15328); details: Table 1 footnote (a): Westerhoff et al. 1995; cited from earlier work
human FRs (KB cells) = molecular target: T1, human FRs (KB cells) (Homo sapiens, UniProt P15328); assay: Cell-Based Relative Affinity Assay (competition with 3H-FA on adherent KB cells); type: binding; details: for fold weaker affinity / fold lower RA: versus FA (or the Glu-bearing parent); for change of RA with incubation temperature: on ice versus 37° C.
T1 construct: endogenous in cells; host or cells: KB cells
Description: Cell culture. Cells were grown continuously as a monolayer using folate-free RPMI medium (FFRPMI) containing 10% heat-inactivated fetal calf serum (HIFCS) at 37° C. in a 5% CO2/95% air-humidified atmosphere with no antibiotics. The HIFCS contained its normal complement of endogenous folates which enabled the cells to sustain growth in this more physiologically-relevant medium (Leamon et al. Proc Natl Acad Sci, USA 1991; 88:5572-6). All cell experiments were performed using FFRPMI containing 10% HIFCS (FFRPMI/HIFCS) as the growth medium unless otherwise specified.
Cell-Based Relative Affinity Assay. The relative affinity of each test article was determined based on a method initially described by Westerhoff et al. Mol Pharm 1995; 48:459-71) with modifications. Briefly, FR-positive KB cells were seeded in 24-well Falcon plates and allowed to form adherent monolayers (>75% confluent) overnight in FFRPMI/HIFCS. […] Cells were incubated for 1 h on ice or in an incubator at 37° C. (as specified in the figure legends) and then rinsed 3 times with 0.5 mL of PBS. Five hundred microliters of 1% sodium dodecyisulfate in PBS were added to each well; after 5 min, cell lysates were collected, transferred to individual vials containing 5 mL of scintillation cocktail, and then counted for radioactivity. […] Relative affinities were defined as described above.
(§1) Relative Affinity Assay Format. The in vitro RA assay described within measures a ligand's ability to compete with FA for binding to FRs. To date, cultured cells have most commonly been used as the FR source. However, herein described is the evaluation of the use of a cell-free, immobilized FR plate system for this assay. This latter method utilized a microtiter plate to which commercially-available bovine milk soluble FBP had been chemically anchored. Similar to the cell-based method, ^3H-FA can compete directly with increasing concentrations of test article for binding to the attached FRs; however, unlike the cell-based method, bound radiolabel can be conveniently “stripped” from the plate by rinsing with a mildly acidic saline solution. […] Likewise, values lower than unity reflect weaker affinity, and values higher than unity reflect stronger affinity.

KB cells = assay: Activity against KB cells (72 h continuous assay); type: cell-based; details: Homo sapiens
[1] = test system: human KB tumor cells xenografts; assay: Activity against subcutaneous KB tumors; type: in vivo, mice; details: 2 μmol/kg TIW/2 weeks
Description: Effect On Transplanted KB Tumors. Mice are injected, subcutaneously with human KB tumor cells xenografts.

[2] = molecular target: bovine milk soluble folate binding protein (sFBP) (Bos taurus, UniProt P02702); details: plate-anchored bovine milk sFBP, cold incubation, absence of serum
Text: as §1

[3] = Remaining in solution during the RA assay period; type: physicochemical; details: even at 30 μM, throughout the assay period
Text: It is further appreciated that among the folate analogs, it was interesting to observe the importance of having a charged moiety in close proximity to the Pte group. For example, the RA value increased 90 to>300-fold when a Glu residue was attached to Pte, and N^10-propargyl 5,8-dideazapteroic acid, respectively. […] But, two exceptions were found. […] Therefore, without being hound by theory, it is believed that the lower RA value observed for EC216 may result from steric interference caused by the closer proximity of the drug (DAVLBH) to the Pte unit.

[4] = Table 1, adherent KB cells, 10% serum, 37° C., FA = 1
[5] = KB cells, 10% serum (10% serum/FDRPMI)
[6] = Table 2, adherent KB cells, 10% serum, 37° C., FA = 1

Chain of Folate Receptor (P15328 25-234): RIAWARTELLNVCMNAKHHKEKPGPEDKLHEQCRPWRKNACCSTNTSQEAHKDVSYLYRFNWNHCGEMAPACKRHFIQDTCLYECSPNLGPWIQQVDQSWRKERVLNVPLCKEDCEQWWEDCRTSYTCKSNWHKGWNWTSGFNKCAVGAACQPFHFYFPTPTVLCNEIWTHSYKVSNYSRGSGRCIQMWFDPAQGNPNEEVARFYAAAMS
T1 sequence (P15328 25-234): as above
Chain of bovine milk soluble folate binding protein (sFBP) (P02702 20-234): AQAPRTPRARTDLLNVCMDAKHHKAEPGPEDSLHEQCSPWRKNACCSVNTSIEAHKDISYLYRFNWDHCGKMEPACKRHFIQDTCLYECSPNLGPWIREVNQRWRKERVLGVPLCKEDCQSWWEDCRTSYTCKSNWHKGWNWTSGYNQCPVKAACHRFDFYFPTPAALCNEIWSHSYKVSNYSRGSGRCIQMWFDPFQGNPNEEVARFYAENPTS

- fold weaker affinity / fold lower RA (human FRs (KB cells); KB cells, 10% serum, 37° C.): 125
- Fold Weaker Affinity from FA (human FRs (KB cells); Table 1, 37° C., 10% serum): 125
- Relative Binding Affinity (0° C.) (human FRs (KB cells); Table 1, KB cells, FA = 1): 0.15
- Relative Binding Affinity (37° C.) (human FRs (KB cells); [4]): 0.008
Compound: Nc1nc2c(c(=O)[nH]1)N(C=O)C(CNc1ccc(C(=O)N[C@@H](CCC(=O)O)C(=O)O)cc1)CN2 (stereo partly drawn) [5-formyl-tetrahydrofolate, 5-formyltetrahydrofolate]
- Relative Binding Affinity (0° C.), value in parentheses (Folate Receptor): 0.1

- fold weaker affinity / fold lower RA (human FRs (KB cells); KB cells, 10% serum, 37° C.): 14
- Fold Weaker Affinity from FA (human FRs (KB cells); Table 1, 37° C., 10% serum): 14
- Relative Binding Affinity (37° C.) (human FRs (KB cells); [4]): 0.070
Compound: CN1c2c(nc(N)[nH]c2=O)NCC1CNc1ccc(C(=O)N[C@@H](CCC(=O)O)C(=O)O)cc1 (stereo partly drawn) [5-methyl-tetrahydrofolate, 5-methyltetrahydrofolate]
- Relative Binding Affinity (0° C.), value in parentheses (Folate Receptor): (0.35)^(a)

- IC50 (KB cells; FIG. 9 Panel A): 5 nM
- IC50 (KB cells; FIG. 9 Panel B): 19 nM
- RA (relative affinity) (human FRs (KB cells); [5]): 0.148
- RA / competitive binding in words (human FRs (KB cells); KB cells, 10% serum, 37° C.): equal to that of FA
- Fold Weaker Affinity from FA (human FRs (KB cells); Table 1, 37° C., 10% serum): 1.0
- Relative Binding Affinity (37° C.) (human FRs (KB cells); [4]): 1.000
Compound: C#CCN(Cc1ccc2nc(N)[nH]c(=O)c2c1)c1ccc(C(=O)N[C@@H](CCC(=O)O)C(=O)O)cc1 [CB3717, N10-propargyl-5,8-dideazafolic acid]
- complete responses [1]: 0/5

- fold weaker affinity / fold lower RA (human FRs (KB cells); KB cells, 10% serum, 37° C.): > 300
- Fold Weaker Affinity from FA (human FRs (KB cells); Table 1, 37° C., 10% serum): 500
- Relative Binding Affinity (37° C.) (human FRs (KB cells); [4]): 0.002
Compound: C#CCN(Cc1ccc2nc(N)[nH]c(=O)c2c1)c1ccc(C(=O)O)cc1 [Des-glutamyl CB3717, N^10-propargyl 5,8-dideazapteroic acid]

Compound: Nc1nc2ncc(CNc3ccc(C(=O)N[C@@H](CCC(=O)NCCNC(=S)Nc4ccc(-c5c6ccc(=O)cc-6oc6cc(O)ccc56)c(C(=O)O)c4)C(=O)O)cc3)nc2c(=O)[nH]1 [EC17, Pte-γGlu-eda-FITC]
- Fold Weaker Affinity form FA (human FRs (KB cells); Table 2, 37° C., 10% serum): 1.2
- Relative Binding Affinity (0° C.) (human FRs (KB cells); Table 2, KB cells, FA = 1): 0.29
- Relative Binding Affinity (37° C.) (human FRs (KB cells); [6]): 0.45
- change of RA with incubation temperature (human FRs (KB cells); no serum): increased with temperature

Compound: Nc1nc2ncc(CNc3ccc(C(=O)N[C@@H](CCC(=O)NC[C@H](N)C(=O)N[C@@H](CC(=O)O)C(=O)N[C@@H](CS)C(=O)O)C(=O)O)cc3)nc2c(=O)[nH]1 [EC20, Pte-γGlūβDpr-Asp-Cys]
- Fold Weaker Affinity form FA (human FRs (KB cells); Table 2, 37° C., 10% serum): 1.1
- Relative Binding Affinity (37° C.) (human FRs (KB cells); [6]): 0.92

Compound: CO[C@@]12[C@H](COC(N)=O)C3=C(C(=O)C(C)=C(NCCSSC[C@H](NC(=O)CC[C@@H](NC(=O)c4ccc(NCc5cnc6nc(N)[nH]c(=O)c6n5)cc4)C(=O)O)C(=O)O)C3=O)N1C[C@@H]1N[C@@H]12 [EC72, Pte-γGlu-Cys-L-MMC]
- Fold Weaker Affinity form FA (human FRs (KB cells); Table 2, 37° C., 10% serum): 1.5
- Relative Binding Affinity (0° C.) (human FRs (KB cells); Table 2, KB cells, FA = 1): 0.53
- Relative Binding Affinity (37° C.) (human FRs (KB cells); [6]): 0.59
- change of RA with incubation temperature (human FRs (KB cells); no serum): increased with temperature

Compound: CC[C@]1(O)CC2CN(CCc3c([nH]c4ccccc34)[C@@](C(=O)OC)(c3cc4c(cc3OC)N(C)[C@H]3[C@@](O)(C(=O)N/N=C(\C)c5ccc(N6C(=O)CC(SC[C@H](NC(=O)[C@H](CC(=O)O)NC(=O)[C@H](CC(=O)O)NC(=O)[C@H](CCCNC(=N)N)NC(=O)[C@H](CC(=O)O)NC(=O)CC[C@H](NC(=O)c7ccc(NCc8cnc9nc(N)[nH]c(=O)c9n8)cc7)C(=O)O)C(=O)O)C6=O)cc5)[C@H](O)[C@]5(CC)C=CCN6CC[C@]43[C@@H]65)C2)C1 (stereo partly drawn) [EC140, EC119-Hyd-DAVLBH]
- RA (relative affinity) (human FRs (KB cells); [5]): 0.50
- RA (relative affinity) (human FRs (KB cells); KB cells, 37° C., no serum): 0.12
- fold change of RA with serum versus absence of serum (human FRs (KB cells); KB cells, serum versus no serum): 4 and 4.1
- Fold Weaker Affinity form FA (human FRs (KB cells); Table 2, 37° C., 10% serum): 2.0
- Relative Binding Affinity (37° C.) (human FRs (KB cells); [6]): 0.50

Compound: CC[C@]1(O)CC2CN(CCc3c([nH]c4ccccc34)[C@@](C(=O)OC)(c3cc4c(cc3OC)N(C)[C@H]3[C@@](O)(C(=O)NNC(=O)OCCSSC[C@H](NC(=O)[C@H](CC(=O)O)NC(=O)[C@H](CC(=O)O)NC(=O)[C@H](CCCNC(=N)N)NC(=O)[C@H](CC(=O)O)NC(=O)CC[C@H](NC(=O)c5ccc(NCc6cnc7nc(N)[nH]c(=O)c7n6)cc5)C(=O)O)C(=O)O)[C@H](O)[C@]5(CC)C=CCN6CC[C@]43[C@@H]65)C2)C1 (stereo partly drawn) [EC145, EC119-L-DAVLBH]
- Fold Weaker Affinity form FA (human FRs (KB cells)): 2.1
- Relative Binding Affinity (37° C.) (human FRs (KB cells)): 0.47
- fold change of RA with serum versus absence of serum (human FRs (KB cells)): 2.4
- RA (relative affinity) [2]: 0.12
- complete responses [1]: 2/5

Compound: CC[C@]1(O)CC2CN(CCc3c([nH]c4ccccc34)[C@@](C(=O)OC)(c3cc4c(cc3OC)N(C)[C@H]3[C@@](O)(C(=O)NNC(=O)OCCSSC[C@H](NC(=O)c5ccc(NCc6cnc7nc(N)[nH]c(=O)c7n6)cc5)C(=O)O)[C@H](O)[C@]5(CC)C=CCN6CC[C@]43[C@@H]65)C2)C1 (stereo partly drawn) [EC216, Pte-Cys-L-DAVLBH]
- fold decrease in RA versus EC145 (human FRs (KB cells); KB cells, 10% serum, 37° C., shortened spacer): 10
- Fold Weaker Affinity form FA (human FRs (KB cells); Table 2, 37° C., 10% serum): 22
- Relative Binding Affinity (37° C.) (human FRs (KB cells); [6]): 0.046
- remaining in solution [3]: remain in solution

- RA (relative affinity) (human FRs (KB cells); [5]): 0.002
Compound: C#CCN(Cc1ccc2nc(N)[nH]c(=O)c2c1)c1ccc(C(=O)O)cc1 [EC283]

- variation of calculated RA values among serum conditions (human FRs (KB cells); 0 to 100% sera): 13%
Compound: Nc1nc2ncc(CNc3ccc(C(=O)N[C@@H](CCC(=O)O)C(=O)O)cc3)nc2c(=O)[nH]1 [Folic Acid]

- fold weaker affinity / fold lower RA (human FRs (KB cells); KB cells, 10% serum, 37° C.): 50
- Fold Weaker Affinity from FA (human FRs (KB cells); Table 1, 37° C., 10% serum): 50
- Relative Binding Affinity (0° C.) (human FRs (KB cells); Table 1, KB cells, FA = 1): 0.000
- Relative Binding Affinity (37° C.) (human FRs (KB cells); [4]): 0.018
Compound: CN(Cc1cnc2nc(N)[nH]c(=N)c2n1)c1ccc(C(=O)N[C@@H](CCC(=O)O)C(=O)O)cc1 [Methotrexate]
- Relative Binding Affinity (0° C.), value in parentheses (Folate Receptor): 0.008

- Fold Weaker Affinity from FA (human FRs (KB cells); Table 1, 37° C., 10% serum): 500
- Relative Binding Affinity (0° C.) (human FRs (KB cells); Table 1, KB cells, FA = 1): 0.26
- Relative Binding Affinity (37° C.) (human FRs (KB cells); [4]): 0.002
Compound: Nc1nc2[nH]cc(CCc3ccc(C(=O)N[C@@H](CCC(=O)O)C(=O)O)cc3)c2c(=O)[nH]1 [Pemetrexed, N-(4-(2-(2-amino-4,7-dihydro-4-oxo-3H-pyrrolo[2,3-D]pyrimidin-5-yl)ethyl)benzoyl]-L-glutamic acid]
- Relative Binding Affinity (0° C.), value in parentheses (Folate Receptor): 1.5

- RA / competitive binding in words (human FRs (KB cells); KB cells, 10% serum, 37° C.): failed to block
- Relative Binding Affinity (37° C.) (human FRs (KB cells); [4]): 0.000
Compound: Nc1nc2ncc(C(=O)O)nc2c(=O)[nH]1 [Pterin-6-carboxylate]

- RA (relative affinity) (human FRs (KB cells); KB cells on ice / cold incubation, absence of serum): 0.42
- fold weaker affinity than FA (human FRs (KB cells); KB cells on ice, no serum): 2.4
- fold weaker affinity / fold lower RA (human FRs (KB cells); KB cells, 10% serum, 37° C., listed as Pte): 91 and 90
- RA (relative affinity) (human FRs (KB cells); KB cells, 37° C., no serum): 0.01
- fold weaker affinity than FA (human FRs (KB cells); KB cells, 37° C., no serum): 100
- Fold Weaker Affinity from FA (human FRs (KB cells); Table 1, 37° C., 10% serum): 91
- Relative Binding Affinity (0° C.) (human FRs (KB cells); Table 1, KB cells, FA = 1): 0.42
- Relative Binding Affinity (37° C.) (human FRs (KB cells); [4]): 0.011
Compound: Nc1nc2ncc(CNc3ccc(C(=O)O)cc3)nc2c(=O)[nH]1 [Pteroic Acid]

- competition with binding of 3H-FA (human FRs (KB cells); 300-fold molar excess, KB cells): not able to compete
- RA / competitive binding in words (human FRs (KB cells); KB cells, 10% serum, 37° C.): very low
Compound: Cc1cc2nc3c(=O)[nH]c(=O)nc-3n(C[C@H](O)[C@H](O)[C@H](O)CO)c2cc1C [riboflavin]
